{"source": "patent US20240336658A1", "about": "“CYCLIC PEPTIDE AND PREPARATION METHOD AND USE THEREOF” (HANGZHOU HUIBO SCIENCE AND TECHNOLOGY CO., LTD, priority 2021, published 2024)", "key": {"fibroblasts (NIH/3T3)": {"system": "fibroblasts (NIH/3T3)", "assay": "Scratching experiment, Hst1 cyclic peptides (Examples 11 and 12)", "format": "cell-based", "settings": "dosage needed to achieve the same pharmaceutical effect in the scratch experiment", "description": "At the same time, fibroblasts (NIH/3T3; GNM 6; Chinese Academy of Sciences, China) were plated into a 6-well plate at a number of 2×10^6/well and cultured to a density of 70-80%. The cells were starved for 8-12 hours before the experiment. Mitomycin C (Sigma Aldrich, USA) was added into the culture medium to make its concentration in the culture medium be 15 μg/ml, and the culture medium was changed after 3 hours of treatment. Scratching was conducted with a 200 μl pipette tip perpendicular to the bottom of the well-plate with the same force, and the well-plate was rinsed with PBS twice after scratching. Each well was added with an appropriate amount of a DEME medium (10% FBS, 1% double antibody), and except for the blank control group, each well was added with 10 μM of the linear Hst1, 0.01 μM of the propynylglycine-Hst1 cyclic peptide, 0.1 μM of the propynylglycine-Hst1 cyclic peptide and 1 μM of the propynylglycine-Hst1 cyclic peptide as experimental groups. At 0 hour, the cells in each group were photographed by using a microscope (Olympus, Japan). […] The scratched area of each group was calculated by using imageJ (Rawak Software, Inc. Germany) software, and the scratch area at 0 hour was an initial scratch area. The scratch healing rate was calculated as follows: […]"}, "[1]": {"system": "full-thickness skin defect wound surfaces", "assay": "Effects of cyclic peptide Hst1 on wound repair in mice (Example 10): healing rate, HE/Masson histology, CD31/VEGF immunohistochemistry", "format": "in vivo, C57 BL/6 mice", "description": "This example adopted the propargylglycine-Hst1 cyclic peptide (Click-Histatin1) provided in Example 1, a cyclized Hst1 (Sortase A-cyclic histatin1) prepared by the Sortase A enzymatic method provided in Example 4, and a linear peptide Hst1 (Histatin1) to conduct animal experiments to observe the effect of the propargylglycine-Hst1 on the healing rates of the wound surfaces of mice. The concentration of the linear peptide Hst1 was 10 μM, the concentration of the propargylglycine-Hst1 cyclic peptide was 0.1 μM, and the concentration of the cyclized Hst1 prepared by the Sortase A enzymatic method was each 0.1 μM. 12 healthy male special pathogen-free grade C57 BL/6 mice (purchased from Guangdong Experimental Animal Center) of 6-8 weeks old and weighing 22-28 g. They were intraperitoneally injected with 5 ml/kg of 1% pentobarbital sodium for anesthesia. After the mice had no corneal reflex, the hair on their backs was carefully removed and disinfected with alcohol. […] full-thickness skin defect wound surfaces were prepared on the back of each mouse by using a circular skin punch. The 12 mice were divided into a Control (blank) group with 3 mice, a 10 μM linear peptide Hst1 (Histatin1) group with 3 mice, a 0.1 μM propynylglycine-Hst1 cyclic peptide (Click-Histatin1) group with 3 mice, and a 0.1 μM cyclized Hst1 prepared by a Sortase A enzymatic method (Sortase A-cyclic histatin1) group with 3 mice, according to a random number table method. Each wound surface was added with 0.5 ml of four drugs respectively, and administration was conducted every day until the wound surfaces of the experimental groups healed. Photographs were taken on days 0, 3, 5, 7, and 10 after surgery, and wound tissues were sampled on day 10 for subsequent pathological staining. On days 0, 3, 5, 7, and 10 after injury, the general condition of wound healing of the mice was observed and photographed with a digital camera (see FIG. 4), and the wound healing rate was calculated (see FIG. 5). Wound healing rate=(wound area immediately after injury−unhealed wound area at each time point)[…]wound area immediately after injury×100%. The wound specimens were fixed in 4% paraformaldehyde for 48 hours, rinsed with tap water for 10 minutes, dehydrated with graded ethanol, permeabilized with xylene, and embedded in paraffin to prepare 4 μm thick sections. Some sections were taken for HE staining and Masson staining, and observed for the thickness of the granulation tissue, the length of the dermal gap, and the newly grown collagen of the wound surface under an inverted fluorescence microscope at 40×, 100×, 200×, and 400× respectively (see FIGS. 6 and 7). 5 sections were taken from each mouse, and 5 fields of view were selected for each section. Data analysis was performed using the software Image-pro Plus. […] It was added with a rabbit anti-mouse CD31 primary antibody (with a dilution ratio of 1:300) and a mouse anti-VEGF (with a dilution ratio of 1:100), incubated overnight at 4° C., and washed with PBS. […] It was subjected to DAB development, hematoxylin counterstaining. gradient ethanol dehydration, xylene permeabilization, and resin blocking. 5 sections were taken from each mouse, and 5 fields of view were selected for each section. The sections were observed under a 400× inverted fluorescence microscope, and analyzed for the number of CD31-positive blood vessels (see FIG. 8) and VEGF expression amounts (see FIG. 9, shown in brown) by using Image-pro Plus software. The measurement data were expressed by M±SD, and the data were analyzed by one-way analysis of variance (ANOVA) and an independent samples T-test with SPSS 20.0 software to detect whether the differences among the groups were statistically significant, and a Bonferroni test was used for pairwise comparison. *p<0.05. **p<0.01. ***p<0.001 meant the difference was statistically significant, and p>0.05 was not statistically significant."}, "[2]": {"settings": "day 10, immunohistochemistry, 0.1 μM Click-Histatin1, 10 μM Histatin1"}}, "data": [{"substance": "Linear Hst1: linear peptide Hst1 (Histatin1), amino acid sequence SEQ ID NO.1", "values": [{"measurement": "Dosage of agents required for scratch test", "setting": "fibroblasts (NIH/3T3)", "value": 10, "unit": "µM"}, {"measurement": "healing rate of the wound surface", "setting": "[1]; day 7, 10 μM Histatin1 vs 0.1 μM Click-Histatin1", "value": "no significant difference"}, {"measurement": "dermal gap length at both ends of the wound surface", "setting": "[1]; day 10, HE staining, 0.1 μM Click-Histatin1, 0.1 μM Sortase A-cyclic histatin1, 10 μM Histatin1", "value": "longest dermal gap length"}, {"measurement": "expression amount of collagen at the wound surfaces", "setting": "[1]; day 10, Masson staining, 0.1 μM Click-Histatin1, 0.1 μM Sortase A-cyclic histatin1, 10 μM Histatin1", "value": "significantly higher than that of the Control group"}, {"measurement": "VEGF expression amount", "setting": "[1]; [2]", "value": "higher than that in the Control group"}, {"measurement": "number of CD31-positive blood vessels under each field of view", "setting": "[1]; [2]", "value": "significantly higher than that in the Control group"}]}]}
